Source: US20240101572A1, “DIHYDROOXADIAZINONE COMPOUND AND PHARMACEUTICAL USE THEREOF” (Japan Tobacco Inc., priority 2022, published 2024)

Tests used:
[1] = molecular target: full-length human PLD2 (Homo sapiens (Human), UniProt O14939); assay: Evaluation of human PLD2 enzyme inhibitory activity (Amplex Red / choline oxidase fluorescence); format: biochemical; details: full-length human PLD2 enzyme; read-out: PLD2 IC50
Method: A method for measuring human PLD2 enzyme inhibitory activity using an enzyme in which a FLAG-tag is added to the N-terminus of full-length human PLD2 (1-933 amino acids) is shown below.
(§1) DNA fragment in which a FLAG-tag sequence is added to the 5′-end of full-length human PLD2 was amplified by PCR method, using commercially available human PLD2 gene (Promega KK) as a template. The amplified DNA fragment was fused with vector pVL1393 for baculovirus production (Pharmingen) digested with BamHI and EcoRI, using In-Fusion HD Cloning Kit (Takara Bio). The full-length human PLD2-expression plasmid DNA for baculovirus was isolated from Escherichia coli DH5a (TOYOBO) transformed with the obtained In-Fusion reaction product. Next, DNA fragment in which a FLAG-tag sequence is added to the 5′-end of full-length human PLD2 was amplified by PCR method, using the full-length human PLD2-expression plasmid DNA for baculovirus as a template. The amplified DNA fragment was fused with a DNA fragment in which a linker sequence is introduced into pcDNA3.4-TOPO (Life Technologies), using In-Fusion HD Cloning Kit (Takara Bio). The full-length human PLD2-expression plasmid DNA for animal cells was isolated from Escherichia coli DH5a transformed with the obtained In-Fusion reaction product. The base sequence of the full-length human PLD2 cloned into vector was determined by a Dye Terminator method using BigDye Terminator v3.1 Cycle Sequencing Kit (Applied Biosystems). The determined sequence was a sequence in which the FLAG-tag sequence was inserted at the 5′-end of the full-length human PLD2 (GenBank Accession Number: NM 002663).
(§2) Expi293F cells (Life Technologies) were cultured with shaking using Expi293 Expression Medium (Life Technologies) as a medium at 37° C. in the presence of 8% CO2. The gene introduction reagent PEI was prepared by dissolving Polyethylenimine Max (nominally MW 40,000) (Polysciences) in MilliQ water, adjusting the pH of the solution to 7.0 with NaOH to obtain a 1 mg/mL solution, and then filtering the solution through 0.22 μm filter. The full-length human PLD2-expression plasmid DNA for animal cells was transfected into Expi293F cells using PEI, and after 48 hours of shaking culture, the cells were collected and stored at −80° C.
(§3) To the full-length human PLD2-expressed cells was added a Homogenate buffer (20 mmol/L Na-phosphate pH 7.5, 250 mmol/L NaCl, 1 mmol/L MgCl2, 1% β-OG, 0.05 mmol/L DTT+complete EDTA-free (Roche Diagnostics K.K.)), and the cells were lysed by Microfluidizer Processor M-110EH (Mizuho Kogyo Co., Ltd.). The lysate was centrifuged at 10,100×g at 4° C. for 15 minutes, and the supernatant was collected and filtered through 0.45 μm filter. To the centrifuged supernatant was added ANTI-FLAG M2 Affinity Gel (SIGMA-Aldrich) resin equilibrated with a Homogenate buffer, and the mixed solution was stirred at 4° C. for 1 hr or more. The mixed solution was loaded onto Poly-Prep column, and the resin was washed with a Wash buffer (20 mmol/L Na-phosphate pH 7.5, 150 mmol/L NaCl, 1 mmol/L MgCl2, 0.02% Triton, 0.05 mmol/L DTT). A Wash buffer containing 400 μg/mL DYKDDDDK Peptide (Scrum Inc.) was added to the column to elute the protein bound to the resin. The eluted fractions were subjected to SDS-PAGE followed by CBB staining to identify the fractions containing the full-length human PLD2. The eluted fractions of the full-length human PLD2 were collected and concentrated using Amicon Ultra-15 100k (Merck Millipore). The concentrated fractions were collected, flash-frozen in liquid nitrogen and stored at −80° C.
(§4) A DMSO or test substance solution (the DMSO final concentration: 5%) prepared by diluting DMSO or test substance with an Assay buffer (50 mmol/L HEPES pH 7.5, 80 mmol/L KCl, 3 mmol/L EGTA, 3.6 mmol/L MgCl2, 0.01% NP-40, 0.1% BSA), and the solution was added to a 384 well Assay Plate (Black, Polystyrene, Non-Treated, Cat No. 3573, Corning) by 5 μL/well. […]

[2] = molecular target: full-length human PLD1 (Homo sapiens (Human), UniProt Q13393); assay: Evaluation of human PLD1 enzyme inhibitory activity (Amplex Red / choline oxidase fluorescence); format: biochemical; details: full-length human PLD1 enzyme; read-out: PLD1 IC50
Method: A method for measuring human PLD1 enzyme inhibitory activity using an enzyme in which a FLAG-tag is added to the N-terminus of full-length human PLD1 (1-1036 amino acids) is shown below.
as §1, with “PLD1” for “PLD2”, “PLD1-expression” for “PLD2-expression”, “NM_001130081).” for “NM 002663).”
as §2, with “PLD1-expression” for “PLD2-expression”
as §3, with “PLD1-expressed” for “PLD2-expressed”, “PLD1.” for “PLD2.”, “PLD1” for “PLD2”
as §4

Sequence of full-length human PLD2 (O14939 whole entry, the tested form may be a part): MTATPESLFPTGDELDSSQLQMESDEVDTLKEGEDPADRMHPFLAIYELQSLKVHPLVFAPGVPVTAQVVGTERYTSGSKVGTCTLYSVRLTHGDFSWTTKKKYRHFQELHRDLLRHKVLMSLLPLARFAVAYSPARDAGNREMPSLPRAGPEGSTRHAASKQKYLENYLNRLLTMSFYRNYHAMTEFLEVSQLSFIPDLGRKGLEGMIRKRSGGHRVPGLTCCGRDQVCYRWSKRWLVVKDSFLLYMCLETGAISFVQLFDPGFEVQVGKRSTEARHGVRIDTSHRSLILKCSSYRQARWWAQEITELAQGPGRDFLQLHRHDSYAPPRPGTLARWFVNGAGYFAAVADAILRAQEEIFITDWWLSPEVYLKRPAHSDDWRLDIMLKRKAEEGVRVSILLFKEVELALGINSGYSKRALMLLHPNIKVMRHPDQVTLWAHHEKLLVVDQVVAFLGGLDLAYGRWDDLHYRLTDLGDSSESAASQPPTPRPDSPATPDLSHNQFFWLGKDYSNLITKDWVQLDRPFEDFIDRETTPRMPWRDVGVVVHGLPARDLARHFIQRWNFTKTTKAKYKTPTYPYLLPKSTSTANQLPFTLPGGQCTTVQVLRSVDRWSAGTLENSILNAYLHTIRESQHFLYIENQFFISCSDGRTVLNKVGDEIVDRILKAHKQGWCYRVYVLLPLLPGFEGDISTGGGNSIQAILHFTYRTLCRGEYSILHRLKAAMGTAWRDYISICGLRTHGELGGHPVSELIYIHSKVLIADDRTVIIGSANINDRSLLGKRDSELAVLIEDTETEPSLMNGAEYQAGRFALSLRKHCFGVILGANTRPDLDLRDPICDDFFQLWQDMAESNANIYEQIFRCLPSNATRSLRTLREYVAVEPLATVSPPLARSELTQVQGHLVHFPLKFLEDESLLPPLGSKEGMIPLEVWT
Sequence of full-length human PLD1 (Q13393 other isoform, or with tags, fused parts or gaps): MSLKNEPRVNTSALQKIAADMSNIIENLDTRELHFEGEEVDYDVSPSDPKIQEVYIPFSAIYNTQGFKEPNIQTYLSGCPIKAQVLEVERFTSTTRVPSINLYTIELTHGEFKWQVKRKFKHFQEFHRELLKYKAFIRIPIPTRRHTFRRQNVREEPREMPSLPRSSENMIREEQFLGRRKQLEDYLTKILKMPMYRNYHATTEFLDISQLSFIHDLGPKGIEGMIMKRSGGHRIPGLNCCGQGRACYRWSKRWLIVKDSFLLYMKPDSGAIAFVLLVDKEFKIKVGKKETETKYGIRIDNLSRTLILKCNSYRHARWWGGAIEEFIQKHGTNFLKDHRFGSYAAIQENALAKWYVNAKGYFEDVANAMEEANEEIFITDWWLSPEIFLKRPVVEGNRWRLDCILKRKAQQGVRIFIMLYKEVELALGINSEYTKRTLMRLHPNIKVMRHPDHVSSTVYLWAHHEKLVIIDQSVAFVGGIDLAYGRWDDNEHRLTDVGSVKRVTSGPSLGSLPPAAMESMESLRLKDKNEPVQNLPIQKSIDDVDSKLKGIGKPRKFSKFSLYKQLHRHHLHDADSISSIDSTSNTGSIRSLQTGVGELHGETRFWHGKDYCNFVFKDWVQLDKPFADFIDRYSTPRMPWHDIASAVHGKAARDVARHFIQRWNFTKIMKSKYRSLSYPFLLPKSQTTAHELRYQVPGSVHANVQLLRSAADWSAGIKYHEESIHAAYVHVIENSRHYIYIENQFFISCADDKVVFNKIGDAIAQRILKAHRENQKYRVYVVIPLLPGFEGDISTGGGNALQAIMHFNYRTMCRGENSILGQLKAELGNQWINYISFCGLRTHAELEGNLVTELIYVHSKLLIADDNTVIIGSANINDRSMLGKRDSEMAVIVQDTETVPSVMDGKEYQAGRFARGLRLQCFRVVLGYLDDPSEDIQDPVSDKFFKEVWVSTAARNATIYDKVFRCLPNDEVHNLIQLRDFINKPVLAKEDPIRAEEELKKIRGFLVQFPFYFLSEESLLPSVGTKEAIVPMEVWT

Question: What does the source list for `Cc1cc(C(=O)N[C@@H](C)C[C@H]2CC[C@]3(CC2)OC(=O)NN=C3c2cnc(N3C[C@@H]4C[C@H]3CO4)cc2C)[nH]n1` [Example 250]?
Answer: IC50 [1]: < 10 nM; IC50 [2]: 22 nM

Question: Which IC50 [1] does the source give for `CNC(=O)C(=O)N[C@@H](C)C[C@H]1CC[C@]2(CC1)OC(=O)NN=C2c1cc(C(=O)N2CCC(F)(F)C2)ccc1Br` [Example 2-056] here?
Answer: < 10 nM

Question: What about the IC50 [2] of the same compound?
Answer: 17 nM

Question: With `CNC(=O)C(=O)N[C@@H](C)C[C@H]1CC[C@]2(CC1)OC(=O)NN=C2c1cc(C(C)(C)O)ccc1Br` [Example 2-026] as the compound, how does the IC50 [1] read?
Answer: < 10 nM

Question: And the IC50 [2]?
Answer: 12 nM

Question: `Cc1cc(C(=O)N[C@@H](C)CN2CC[C@@]3(C[C@H]2C)OC(=O)NN=C3c2ccc(C#N)cc2Cl)[nH]n1` [Example 232] was tested. Which IC50 [1] did it give?
Answer: 2130 nM

Question: What about the IC50 [2] of the same compound?
Answer: 2580 nM

Question: What does the source list for `[2H]C([2H])([2H])NC(=O)C(=O)N[C@@H](C)C[C@H]1CC[C@]2(CC1)OC(=O)NN=C2c1cc(C#N)ccc1Br` [Example 2-073]?
Answer: IC50 [1]: 2 nM; IC50 [2]: 14 nM

Question: How did the IC50 [1] turn out when `CNC(=O)C(=O)N[C@@H](C)C[C@H]1CC[C@]2(CC1)OC(=O)NN=C2c1cnc(N2CC3CCC(C2)O3)cc1C` [Example 269] was run?
Answer: < 10 nM

Question: What about the IC50 [2] of the same compound?
Answer: 18 nM

Question: What does the source list for `CNC(=O)N[C@@H](C)C[C@H]1CC[C@]2(CC1)OC(=O)NN=C2c1ccc(F)cc1I` [Example 183]?
Answer: IC50 [1]: 107 nM; IC50 [2]: 42 nM

Question: How did the IC50 [1] turn out when `C[C@@H](CN1CCC2(CC1)OC(=O)NN=C2c1ccc(F)cc1Br)NC(=O)c1cnn(C(F)(F)F)c1` [Example 255] was run?
Answer: 14 nM

Question: And the IC50 [2]?
Answer: 32 nM

Question: `[2H]C([2H])([2H])NC(=O)C(=O)N[C@@H](C)CN1CCC2(CC1)OC(=O)NN=C2c1cc(C#N)ccc1Br` [Example 2-001] was tested. Which IC50 [1] did it give?
Answer: < 10 nM

Question: And the IC50 [2]?
Answer: 41 nM

Question: `Cc1cc(C(=O)N[C@@H](C)C[C@H]2CC[C@]3(CC2)OC(=O)NN=C3c2cc(OC(F)F)ccc2Br)[nH]n1` [Example 214] was tested. Which IC50 [1] did it give?
Answer: < 10 nM

Question: What about the IC50 [2] of the same compound?
Answer: < 10 nM

Question: How did the IC50 [1] turn out when `C[C@@H](C[C@H]1CC[C@]2(CC1)OC(=O)NN=C2c1ccc(C#N)cc1Br)NC(=O)c1cc(C2CC2)n[nH]1` [Example 2-072] was run?
Answer: 24 nM

Question: And the IC50 [2]?
Answer: 14 nM

Question: With `Cc1cc(C(=O)N[C@@H](C)C[C@H]2CC[C@]3(CC2)OC(=O)NN=C3c2cnc(N3C[C@H]4C[C@@H]3CO4)cc2C)[nH]n1` [Example 249] as the compound, how does the IC50 [1] read?
Answer: < 10 nM

Question: What about the IC50 [2] of the same compound?
Answer: 25 nM

Question: How did the IC50 [1] turn out when `C[C@@H](C[C@H]1CC[C@]2(CC1)OC(=O)NN=C2c1ccc(C#N)cc1Br)NC(=O)c1cc(Cl)no1` [Example 71] was run?
Answer: < 10 nM

Question: And the IC50 [2]?
Answer: < 10 nM

Question: With `CNC(=O)C(=O)N[C@@H](C)C[C@H]1CC[C@]2(CC1)OC(=O)NN=C2c1cc(C(=O)OC)ccc1Br` [Example 2-032] as the compound, how does the IC50 [1] read?
Answer: < 10 nM

Question: And the IC50 [2]?
Answer: 11 nM

Question: Which results are given for `Cc1ccncc1C1=NNC(=O)O[C@]12CC[C@@H](C[C@H](C)NC(=O)c1cc(Cl)no1)CC2` [Example 113]?
Answer: IC50 [1]: 13 nM; IC50 [2]: 17 nM

Question: Which IC50 [1] does the source give for `Cc1cc(C(=O)N[C@@H](C)CN2C[C@H]3CC[C@@H](C2)[C@@]32OC(=O)NN=C2c2ccc(F)cc2Cl)[nH]n1` [Example 197] here?
Answer: < 10 nM

Question: And the IC50 [2]?
Answer: 26 nM

Question: What does the source list for `CC(=O)Nc1cccc2[nH]c(C(=O)N[C@@H](C)C[C@H]3CC[C@]4(CC3)OC(=O)NN=C4c3ccc(F)cc3)cc12` [Example 142]?
Answer: IC50 [1]: < 10 nM; IC50 [2]: 22 nM

Question: Which results are given for `Cc1cc(C(=O)N[C@@H](C)C[C@H]2CC[C@]3(CC2)OC(=O)NN=C3c2cnc(N3CC4CCC(C3)O4)cc2Cl)[nH]n1` [Example 247]?
Answer: IC50 [1]: < 10 nM; IC50 [2]: 14 nM

Question: What does the source list for `C[C@@H](C[C@H]1CC[C@]2(CC1)OC(=O)NN=C2c1ccc(F)cc1Cl)NC(=O)c1cc2ccccc2o1` [Example 46]?
Answer: IC50 [1]: < 10 nM; IC50 [2]: 12 nM

Question: `CNC(=O)C(=O)N[C@@H](C)CN1CCC2(CC1)OC(=O)NN=C2c1ncccc1Br` [Example 2-028] was tested. Which IC50 [1] did it give?
Answer: 32 nM

Question: And the IC50 [2]?
Answer: 45 nM

Question: How did the IC50 [1] turn out when `C[C@@H](CN1CCC2(CC1)OC(=O)NN=C2c1ccc(F)cc1)NC(=O)c1cc2cc(F)ccc2[nH]1` [Example 1] was run?
Answer: < 10 nM

Question: What about the IC50 [2] of the same compound?
Answer: 33 nM

Question: How did the IC50 [1] turn out when `CNC(=O)C(=O)N[C@@H](C)C[C@H]1CC[C@]2(CC1)OC(=O)NN=C2c1cccnc1` [Example 17] was run?
Answer: 1040 nM

Question: What about the IC50 [2] of the same compound?
Answer: 816 nM

Question: `CNC(=O)C(=O)N[C@@H](C)C[C@H]1CC[C@]2(CC1)OC(=O)NN=C2c1cc(N2CCOCC2)ccc1C` [Example 256] was tested. Which IC50 [1] did it give?
Answer: < 10 nM

Question: What about the IC50 [2] of the same compound?
Answer: 27 nM

Question: Which results are given for `CNC(=O)C(=O)N[C@@H](C)C[C@H]1CC[C@]2(CC1)OC(=O)NN=C2c1ccc(F)cc1` [Example 6]?
Answer: IC50 [1]: 120 nM; IC50 [2]: 69 nM

Question: How did the IC50 [1] turn out when `COC(=O)/C=C/C(=O)N[C@@H](C)CN1CCC2(CC1)OC(=O)NN=C2c1cc(C#N)ccc1Br` [Example 2-024] was run?
Answer: 28 nM

Question: What about the IC50 [2] of the same compound?
Answer: 46 nM

Question: For `Cc1cc(C(=O)N[C@@H](C)C[C@H]2CC[C@]3(CC2)OC(=O)NN=C3c2cnc(N3CCOCC3)cc2Cl)[nH]n1` [Example 226], which IC50 [1] is on record?
Answer: < 10 nM

Question: And the IC50 [2]?
Answer: 18 nM
